Laboratory results: patent US20030176314A1, “Compounds for the treatment of pain” (priority 2001, published 2003)
Where a name gives a salt, the structure may show the parent alone.

Columns and labels:
[1] = target: T1, rat NPFF2 receptor (Rattus norvegicus, UniProt Q9EQD2); experiment: Functional assay (agonist potency, intrinsic activity) at cloned rat NPFF2 receptor; assay type: cell-based; conditions: for rNPFF2 IA: Table 7, intrinsic activity
T1 construct: The full-length NPFF2 was amplified from rat spinal cord cDNA; expressed in transfected cells; host or cells: not given

[2] = target: N-methyl-D-aspartate (NMDA) receptor channel complex; experiment: Binding at native NMDA receptor channels; design: species or system rat; conditions: Table 8
Protocol: NMDA Receptor Channels: The methods to determine binding affinity at native N-methyl-D-aspartate (NMDA) receptor channels are described in Wong E. H. et al. (1988), the disclosure of which is hereby incorporated by reference in its entirety into this application.
(§1) The binding affinity (Ki) of these compounds were tested according to the protocols described herein at the following receptors; human α1A, α1B, α1D, α2A, α2B, and α2C adrenergic receptors; human Y1, Y2, Y4, and Y5 receptors; and N-Methyl-D-aspartic acid (NMDA) receptor channels. The binding interactions of these compounds were additionally tested at the norepinephrine (NE) transporter (NE uptake) and serotonin (5-hydroxytryptamine (5HT)) transporter (5HT uptake) according to protocols described herein

[3] = target: T2, human α2A adrenergic receptor (Homo sapiens, UniProt P08913); experiment: Binding at human α2A adrenergic receptor; conditions: Table 8; read-out: hα2A Ki
T2 construct: host or cells: LM(tk-) cells, line L-α2A
T2 sequence (P08913 1-465): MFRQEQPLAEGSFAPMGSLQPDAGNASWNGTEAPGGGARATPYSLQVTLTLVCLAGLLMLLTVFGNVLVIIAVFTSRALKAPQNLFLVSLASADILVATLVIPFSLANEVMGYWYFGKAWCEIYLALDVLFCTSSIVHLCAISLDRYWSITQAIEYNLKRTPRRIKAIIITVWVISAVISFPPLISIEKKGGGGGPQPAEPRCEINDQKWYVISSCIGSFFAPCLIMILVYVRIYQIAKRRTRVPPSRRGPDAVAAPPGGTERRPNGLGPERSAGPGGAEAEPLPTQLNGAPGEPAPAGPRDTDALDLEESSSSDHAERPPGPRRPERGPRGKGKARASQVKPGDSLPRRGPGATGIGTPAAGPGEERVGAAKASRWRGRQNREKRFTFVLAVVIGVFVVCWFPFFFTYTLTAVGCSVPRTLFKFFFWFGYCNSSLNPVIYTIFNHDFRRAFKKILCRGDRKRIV
Source text: (§2) α2 Human Adrenergic Receptors: To determine the binding of compounds to human α2 receptors, LM(tk−) cell lines stably transfected with the genes encoding the α2A, α2B, and α2C receptors were used. The cell line expressing the α2A receptor is designated L-α2A, and was deposited on Nov. 6, 1992, under ATCC Accession No. CRL 11180. The cell line expressing the α2B receptor is designated L-NGC-α2B, and was deposited on Oct. 25, 1989, under ATCC Accession No. CRL 10275. The cell line expressing the α2C receptor is designated L-α2C, and was deposited on Nov. 6, 1992, under ATCC Accession No. CRL-11181. Cell lysates were prepared as described herin, and suspended in 25 mM glycyiglycine buffer (pH 7.6 at room temperature). Equilibrium competition binding assay were performed using […] (0.5 nM), and nonspecific binding was determined by incubation with 10 μM phentolamine. The bound radioligand was separated by filtration through GF/B filters using a cell harvester.
as §1

[4] = target: T3, human α2B adrenergic receptor (Homo sapiens, UniProt P18089); experiment: Binding at human α2B adrenergic receptor; conditions: Table 8; read-out: hα2B Ki
T3 construct: host or cells: LM(tk-) cells, line L-NGC-α2B
T3 sequence (P18089 1-450): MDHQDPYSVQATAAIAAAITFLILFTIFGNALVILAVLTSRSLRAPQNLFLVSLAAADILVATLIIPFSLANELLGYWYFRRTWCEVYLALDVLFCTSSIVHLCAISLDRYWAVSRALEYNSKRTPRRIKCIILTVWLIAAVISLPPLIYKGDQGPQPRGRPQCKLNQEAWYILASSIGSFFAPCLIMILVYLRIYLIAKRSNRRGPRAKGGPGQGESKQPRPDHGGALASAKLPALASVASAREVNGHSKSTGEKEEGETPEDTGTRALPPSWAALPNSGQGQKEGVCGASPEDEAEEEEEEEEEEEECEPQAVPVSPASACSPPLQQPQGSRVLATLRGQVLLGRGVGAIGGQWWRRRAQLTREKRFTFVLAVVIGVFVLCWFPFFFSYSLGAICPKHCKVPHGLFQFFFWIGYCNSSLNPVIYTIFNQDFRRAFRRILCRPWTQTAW
Source text: as §2, §1

[5] = target: T4, human α2C adrenergic receptor (Homo sapiens, UniProt P18825); experiment: Binding at human α2C adrenergic receptor; conditions: Table 8; read-out: hα2C Ki
T4 construct: host or cells: LM(tk-) cells, line L-α2C
T4 sequence (P18825 1-462): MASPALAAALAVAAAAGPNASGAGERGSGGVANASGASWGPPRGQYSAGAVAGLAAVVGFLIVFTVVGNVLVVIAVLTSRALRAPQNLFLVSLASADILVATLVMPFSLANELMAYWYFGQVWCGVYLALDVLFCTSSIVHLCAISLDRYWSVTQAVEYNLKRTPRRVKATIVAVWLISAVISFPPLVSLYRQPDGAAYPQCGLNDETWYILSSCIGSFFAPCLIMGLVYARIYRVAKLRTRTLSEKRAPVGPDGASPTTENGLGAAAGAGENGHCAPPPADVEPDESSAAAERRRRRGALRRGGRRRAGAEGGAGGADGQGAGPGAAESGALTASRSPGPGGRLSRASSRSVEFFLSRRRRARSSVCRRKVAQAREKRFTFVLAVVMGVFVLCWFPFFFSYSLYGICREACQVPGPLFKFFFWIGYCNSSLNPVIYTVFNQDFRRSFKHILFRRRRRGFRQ
Source text: as §2, §1

[6] = target: T5, norepinephrine (NE) transporter (Rattus norvegicus, UniProt Q63380); experiment: Binding at native norepinephrine transporter (NE uptake); conditions: Table 8
T5 construct: evaluated at native, tissue-derived transporters; from tissue
Protocol: (§3) Transporters: The binding properties of compounds were evaluated at native, tissue-derived transporters, namely serotonin (5HT) transporter and norepinephrine (NE) transporter, according to protocols described in Owens (1997), the disclosure of which is hereby incorporated by reference in its entirety into this application.
as §1

[7] = target: T6, serotonin (5HT) transporter (Rattus norvegicus, UniProt P31652); experiment: Binding at native serotonin transporter (5HT uptake); conditions: Table 8
T6 construct: evaluated at native, tissue-derived transporters; from tissue
Protocol: as §3, §1

[8] = target: T7, rat NPFF1 receptor (Rattus norvegicus, UniProt Q9EP86); experiment: Functional assay (agonist potency, intrinsic activity) at cloned rat NPFF1 receptor; assay type: cell-based; conditions: for rNPFF1 IA: Table 7, intrinsic activity
T7 construct: expressed in transfected cells; host or cells: not given

[9] = target: T8, human NPFF2 receptor (Homo sapiens, UniProt Q9Y5X5); experiment: Functional assay (agonist potency, intrinsic activity) at cloned human NPFF2 receptor; assay type: cell-based; conditions: Table 6, intrinsic activity
T8 construct: one of these, B089, was determined to be a full length clone with no point mutations; expressed in transfected cells; host or cells: not given

[10] = test system: distension induced contractions of the rat bladder; experiment: Distension-induced rhythmic contraction (DIRC) model, micturition reflex in anesthetized rats; assay type: in vivo
Source text: This model is widely considered to be predictive for the actions of drugs to treat human urge incontinence (also refered to as detrusor instability or unstable bladder). Examples of drugs that are active in this model which also are used therapeutically in humans include oxybutynin and baclofen (Morikawa et al, 1992); imipramine and nortriptyline (Pietra et al, 1990); and nifedipine and terodiline (Guarneri et al, 1993).
Female Sprague Dawley rats weighing approximately 300 g were anesthetized with subcutaneous urethane (1.2 g/kg). The trachea was cannulated with PE240 tubing to provide a clear airway throughout the experiment. A midline abdominal incision was made and the left and right ureters were isolated. The ureters were ligated distally (to prevent escape of fluids from the bladder) and cannulated proximally with PE10 tubing. The incision was closed using 4-0 silk sutures, leaving the PE10 lines routed to the exterior for the elimination of urine. The bladder was canulated via the transurethral route using PE50 tubing inserted 2.5 cm beyond the urethral opening. This cannula was secured to the tail using tape and connected to a pressure transducer. To prevent leakage from the bladder, the cannula was tied tightly to the exterior urethral opening using 4-0 silk.
To initiate the micturition reflex, the bladder was first emptied by applying pressure to the lower abdomen, and then filled with normal saline in 100 μl increments (maximum=2 ml) until spontaneous bladder contractions occurred (typically 20-40 mmHg at a rate of one contraction every 2 to 3 minutes. Once a regular rhythm was established, vehicle (saline) or test compounds were administered i.v. to examine their effects on bladder activity. The effect of a compound which inhibited the micturition reflex was expressed as its “disappearance time”, defined as the time between successive bladder contractions in the presence of the test compound minus the time between contractions before compound administration.

[11] = test system: distension induced contractions of the rat bladder; conditions: drugs used therapeutically in humans, from publications; cited from earlier work
[12] = agonist: IA>15%, antagonist: Ki≦1.2 mM and IA≦15% at the rat cloned NPFF receptors

T5 sequence (Q63380 1-617): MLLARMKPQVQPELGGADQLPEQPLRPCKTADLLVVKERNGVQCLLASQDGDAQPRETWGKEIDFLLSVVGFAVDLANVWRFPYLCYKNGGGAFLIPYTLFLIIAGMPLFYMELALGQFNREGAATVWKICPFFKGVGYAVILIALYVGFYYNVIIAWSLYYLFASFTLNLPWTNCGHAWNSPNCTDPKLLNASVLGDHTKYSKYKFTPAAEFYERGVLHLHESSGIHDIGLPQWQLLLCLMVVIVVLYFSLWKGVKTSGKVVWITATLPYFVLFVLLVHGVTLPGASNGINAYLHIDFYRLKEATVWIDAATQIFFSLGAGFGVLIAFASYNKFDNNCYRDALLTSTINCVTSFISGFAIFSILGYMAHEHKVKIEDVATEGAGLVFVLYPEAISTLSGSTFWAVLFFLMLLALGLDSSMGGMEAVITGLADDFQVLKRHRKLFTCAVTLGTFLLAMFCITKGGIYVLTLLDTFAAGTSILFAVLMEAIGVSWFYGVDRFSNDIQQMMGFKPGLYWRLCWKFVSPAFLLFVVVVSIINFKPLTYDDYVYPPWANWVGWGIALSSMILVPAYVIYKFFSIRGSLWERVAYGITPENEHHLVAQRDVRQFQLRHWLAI
T1 sequence (Q9EQD2 whole entry): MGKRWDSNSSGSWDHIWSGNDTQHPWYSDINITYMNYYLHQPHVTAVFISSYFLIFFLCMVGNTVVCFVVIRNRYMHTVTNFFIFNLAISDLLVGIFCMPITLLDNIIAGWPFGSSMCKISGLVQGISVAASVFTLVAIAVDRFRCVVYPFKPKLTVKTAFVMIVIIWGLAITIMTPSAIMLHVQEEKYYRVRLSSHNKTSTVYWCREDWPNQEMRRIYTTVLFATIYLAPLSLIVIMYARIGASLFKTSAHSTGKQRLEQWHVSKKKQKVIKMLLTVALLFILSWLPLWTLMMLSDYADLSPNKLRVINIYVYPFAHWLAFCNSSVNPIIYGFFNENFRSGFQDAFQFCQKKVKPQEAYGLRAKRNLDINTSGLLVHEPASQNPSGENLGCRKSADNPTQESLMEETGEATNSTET
T6 sequence (P31652 whole entry): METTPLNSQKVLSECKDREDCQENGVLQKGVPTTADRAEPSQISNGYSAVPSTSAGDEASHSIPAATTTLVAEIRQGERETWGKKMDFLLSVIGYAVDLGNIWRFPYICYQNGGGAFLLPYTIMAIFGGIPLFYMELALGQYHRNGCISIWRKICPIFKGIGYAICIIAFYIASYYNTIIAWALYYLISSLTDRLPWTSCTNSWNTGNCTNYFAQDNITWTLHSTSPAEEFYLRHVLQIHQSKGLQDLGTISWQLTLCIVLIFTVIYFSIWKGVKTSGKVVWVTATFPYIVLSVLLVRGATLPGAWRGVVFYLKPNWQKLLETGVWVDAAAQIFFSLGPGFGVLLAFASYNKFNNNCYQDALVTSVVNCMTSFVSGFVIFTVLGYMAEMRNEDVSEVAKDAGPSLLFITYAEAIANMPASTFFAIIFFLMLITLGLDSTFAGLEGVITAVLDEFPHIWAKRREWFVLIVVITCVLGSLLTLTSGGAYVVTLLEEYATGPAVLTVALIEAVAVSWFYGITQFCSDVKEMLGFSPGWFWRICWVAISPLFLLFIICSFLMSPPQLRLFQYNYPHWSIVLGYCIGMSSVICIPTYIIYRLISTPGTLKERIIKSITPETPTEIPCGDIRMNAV
T7 sequence (Q9EP86 whole entry): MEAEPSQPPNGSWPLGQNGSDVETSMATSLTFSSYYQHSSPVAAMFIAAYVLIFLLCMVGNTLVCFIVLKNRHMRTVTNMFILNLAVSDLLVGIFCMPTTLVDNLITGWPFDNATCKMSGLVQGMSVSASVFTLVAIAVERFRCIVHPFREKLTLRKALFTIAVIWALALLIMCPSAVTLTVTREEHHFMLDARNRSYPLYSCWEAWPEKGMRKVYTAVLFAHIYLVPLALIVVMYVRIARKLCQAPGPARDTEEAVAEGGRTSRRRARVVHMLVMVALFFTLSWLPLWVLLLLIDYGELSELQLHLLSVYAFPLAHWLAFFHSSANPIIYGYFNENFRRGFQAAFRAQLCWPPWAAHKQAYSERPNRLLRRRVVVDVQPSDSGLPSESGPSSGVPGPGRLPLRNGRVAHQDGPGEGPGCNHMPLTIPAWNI
T8 sequence (Q9Y5X5 103-522): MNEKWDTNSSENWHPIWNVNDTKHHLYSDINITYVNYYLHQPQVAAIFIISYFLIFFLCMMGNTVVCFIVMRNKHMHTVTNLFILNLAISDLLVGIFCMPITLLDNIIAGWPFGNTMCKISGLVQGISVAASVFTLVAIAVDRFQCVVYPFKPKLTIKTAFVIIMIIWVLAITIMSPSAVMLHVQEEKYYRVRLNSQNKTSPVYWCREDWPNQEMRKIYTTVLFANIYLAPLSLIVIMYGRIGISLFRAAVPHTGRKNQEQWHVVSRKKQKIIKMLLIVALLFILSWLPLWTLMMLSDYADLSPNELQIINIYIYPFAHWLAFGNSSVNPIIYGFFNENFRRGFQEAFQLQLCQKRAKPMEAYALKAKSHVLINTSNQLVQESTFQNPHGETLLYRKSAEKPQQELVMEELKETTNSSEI

## Cc1nc(NC(=N)N)nc2cc(OCc3ccccc3)ccc12 (as salt: salt) [Compound 1006A, N-[7-(benzyloxy)-4-methyl-2-quinazolinyl]guanidine]
other
  melting point: 215 to 217 °C (dec.)

## Cc1cc2nc(NC(=N)N)nc(C)c2cc1O (as salt: salt) [Compound 1017A, N-(6-hydroxy-4,7-dimethyl-2-quinazolinyl)guanidine]
other
  melting point: 246 to 248 °C (dec.)

## CCc1ccc2nc(NC(=N)N)nc(C)c2c1 [Compound 1003A, N-(6-ethyl-4-methyl-2-quinazolinyl)guanidine]
[1]
  rNPFF2 IA: 83% NPFF
[2]
  Ki: 19.5 µM
[3]
  Ki: 1.97 µM
[4]
  Ki: 31.8 µM
[5]
  Ki: 8.45 µM

## Cc1nc(NC(=N)N)nc2ccc(Cl)cc12 [Compound 1013A, N-(6-chloro-4-methyl-2-quinazolinyl)guanidine]
[1]
  rNPFF2 IA: 52% NPFF
[6]
  Ki: 41.2 µM
[7]
  Ki: 2.02 µM

## CCc1ccc2c(C)nc(NC(=N)N)nc2c1 [Compound 1020A, N-(7-ethyl-4-methyl-2-quinazolinyl)guanidine]
[1]
  rNPFF2 IA: 90% NPFF
[6]
  Ki: 8.02 µM
[7]
  Ki: 5.59 µM
[3]
  Ki: 1.17 µM
[4]
  Ki: 20.9 µM
[5]
  Ki: 4.13 µM

## Cc1nc(NC(=N)N)nc2cc(C(C)(C)C)ccc12 [Compound 1022A, N-[7-(tert-butyl)-4-methyl-2-quinazolinyl]guanidine]
[8]
  rNPFF1 IA: 19% NPFF
[1]
  rNPFF2 IA: 81% NPFF
other
  melting point: 195 to 198 °C (dec.)

## Cc1nc(NC(=N)N)nc2cc(-c3ccccc3)ccc12 [Compound 1023A, N-(4-methyl-7-phenyl-2-quinazolinyl)guanidine]
[1]
  rNPFF2 IA: 35% NPFF
[9]
  hNPFF2 IA: 43% NPFF

## Cc1nc(NC(=N)N)nc2cc3c(cc12)CCC3 [Compound 1038A, N-(4-methyl-7,8-dihydro-6H-cyclopenta[g]quinazolin-2-yl)guanidine]
[1]
  rNPFF2 IA: 74% NPFF
other
  melting point: 295 to 298 °C (dec.)

## Cc1ccc2c(C)nc(NC(=N)N)nc2c1 [Compound 3001A, N-(4,7-dimethyl-2-quinazolinyl)guanidine]
[8]; [12]
  classification as agonist or antagonist at the NPFF1 receptor: antagonists
[1]; [12]
  classification as agonist or antagonist at the NPFF2 receptor: antagonists
[6]
  Ki: 21.4 µM
[7]
  Ki: 22.6 µM

## Cc1ccc2c(C)cc(NC(=N)N)nc2c1 [Compound 4006A, N-(4,7-dimethyl-2-quinolinyl)guanidine]
[1]
  rNPFF2 IA: 32% NPFF
[6]
  Ki: 12.4 µM
[7]
  Ki: 8.79 µM
[10]; 3 mg/kg, i.v.
  inhibition of distention induced contractions of the rat bladder: complete inhibition
[10]; i.v. administration, anesthetized rat (figure legends)
  time for which inhibition of bladder activity persisted: 12 min

## CCCCCc1ccc2nc(NC(=N)N)cc(C)c2c1 [Compound 5002A, N-(4-methyl-6-pentyl-2-quinolinyl)guanidine]
[8]
  rNPFF1 IA: 41% NPFF
[1]
  rNPFF2 IA: 90% NPFF
[9]
  hNPFF2 IA: 75% NPFF

## CCCCCCc1ccc2nc(NC(=N)N)cc(C)c2c1 [Compound 5003A, N-(6-hexyl-4-methyl-2-quinolinyl)guanidine]
[8]
  rNPFF1 IA: 27% NPFF
[1]
  rNPFF2 IA: 57% NPFF
[9]
  hNPFF2 IA: 45% NPFF

## NCC(CC(=O)O)c1ccc(Cl)cc1 (stereo not shown) [baclofen]
[11]
  activity in the DIRC model: active

## CN(C)CCCN1c2ccccc2CCc2ccccc21 [imipramine]
[11]
  activity in the DIRC model: active

## CNCCC=C1c2ccccc2CCc2ccccc21 [nortriptyline]
[11]
  activity in the DIRC model: active

## CCN(CC)CC#CCOC(=O)C(O)(c1ccccc1)C1CCCCC1 (stereo not shown) [oxybutynin]
[11]
  activity in the DIRC model: active

## CC(CC(c1ccccc1)c1ccccc1)NC(C)(C)C (stereo not shown) [terodiline]
[11]
  activity in the DIRC model: active
